Experiments:
HIV-1(NL4-3) [1] = assay type: cell-based
HIV-1(NL4-3) [2] = experiment: microbe, parasite or virus in culture; assay type: cell-based; details: Human immunodeficiency virus 1, NL43; pretreated 1 h, HIV-1(NL4-3) 3 h, washed, 48 h; luciferase; read-out: IC50, inhibition of HIV
HIV-1(Vpr-β-lactamase) = experiment: BlaM-Vpr-based viral entry assay; assay type: cell-based; details: 100 μM; CEM-SS T cells
EBOV (Zaire) = assay type: cell-based, Zaire ebolavirus; details: HFF-1 cells, pretreated 2 h, MOI 2.5, 48 h in continuous presence
[3] = test system: VEEV-Luc (TC-83) and VEEV (TC-83); experiment: microbe, parasite or virus in culture; assay type: cell-based; details: Venezuelan equine encephalitis virus, Vero, read-out: IC50, inhibition of VEEV
Rev-CEM-GFP-Luc cells = details: 4 h treatment; all concentrations tested up to 200 μM
Vero cells = details: up to 100 μM R10015
BTK = BTK (Homo sapiens, UniProt Q06187); experiment: Kinase profiling (Reaction Biology): BTK
AKT2 = AKT2 (Homo sapiens, UniProt P31751); experiment: Kinase profiling (Reaction Biology): AKT2
BRAF = BRAF (Homo sapiens, UniProt P15056); experiment: Kinase profiling (Reaction Biology): BRAF
FLT3 = FLT3 (Homo sapiens, UniProt P36888); experiment: Kinase profiling (Reaction Biology): FLT3
JNK3 = JNK3 (Homo sapiens, UniProt P53779); experiment: Kinase profiling (Reaction Biology): JNK3
NEK1 = NEK1 (Homo sapiens, UniProt Q96PY6); experiment: Kinase profiling (Reaction Biology): NEK1
PKCa = PKCa (Homo sapiens, UniProt P17252); experiment: Kinase profiling (Reaction Biology): PKCa
SGK1 = SGK1 (Homo sapiens, UniProt O00141); experiment: Kinase profiling (Reaction Biology): SGK1
TBK1 = TBK1 (Homo sapiens, UniProt Q9UHD2); experiment: Kinase profiling (Reaction Biology): TBK1
WEE1 = WEE1 (Homo sapiens, UniProt P30291); experiment: Kinase profiling (Reaction Biology): WEE1
GSK3b = GSK3b (Homo sapiens, UniProt P49841); experiment: Kinase profiling (Reaction Biology): GSK3b
ROCK2 = ROCK2 (Homo sapiens, UniProt O75116); experiment: Kinase profiling (Reaction Biology): ROCK2
Aurora A = Aurora A (Homo sapiens, UniProt O14965); experiment: Kinase profiling (Reaction Biology): Aurora A
resting CD4 T cells = experiment: FITC-phalloidin staining of F-actin after SDF-1; details: 100 μM pretreatment, FITC-phalloidin flow cytometry
p70S6K/RPS6KB1 = p70S6K/RPS6KB1 (Homo sapiens, UniProt P23443); experiment: Kinase profiling (Reaction Biology): p70S6K/RPS6KB1; details: read-out: inhibition of p70S6K
phosphorylation of PAK2 = experiment: Western blotting for PAK2 phosphorylation in CEM-SS T cells; details: 100 μM, time course
p-cofilin = experiment: Intracellular p-cofilin staining and flow cytometry in CEM-SS T cells; details: 100 μM, 1 h, 0 h: 20.6%
LIMK1 = LIMK1 (Homo sapiens, UniProt P53667); experiment: LIMK1 biochemical assay, 10-dose IC50; parameters: purified from insect cells; His; purchased Reaction Biology Corporation, Malvern, PA; host or cells: insect cells (coexpressed with ROCK1); details: purified LIMK1; 10 μM ATP, 1 μM cofilin; ≥2 in vitro kinase assays; read-out: LIMK1 Biochemical Inhibition IC50
Text: We selected R10015 from the potential LIMK inhibitors for further detailed mechanistic studies. The synthesis, purification, and biochemical characterization of R10015 are described in Materials and Methods below and shown in Fig. 3. We performed a cell-free assay to measure R10015 inhibition of the LIM domain kinase using purified human LIMK1 and its substrate, cofilin. […] We also performed profiling of R10015 against a panel of 62 kinases (Table 2).
Biochemical LIMK1 assays for all inhibitors were carried out by Reaction Biology Corporation, Malvern, PA, and followed the protocols described on its website. […] Reactions were carried out at 10 μM ATP, 1 μM substrate (cofilin), and 50 nM LIMK1 (final concentrations). […] The reagents were as follows: base reaction buffer, 20 mM HEPES (pH 7.5), 10 mM MgCl2, 1 mM EGTA, 0.02% Brij 35, 0.02 mg/ml bovine serum albumin (BSA), 0.1 mM Na3VO4, 2 mM dithiothreitol (DTT), 1% DMSO. No additional cofactors were added to the reaction mixture. The reaction procedures were as follows. (i) The indicated substrate was prepared in freshly made base reaction buffer. (ii) Any required cofactors were delivered to the substrate solution described above. (iii) The indicated kinase was delivered into the substrate solution and gently mixed. (iv) The compounds in DMSO were delivered into the kinase reaction mixture. (v) [^33P]ATP (final specific activity, 0.01 μCi/μl) was delivered into the reaction mixture to initiate the reaction. […] (viii) The filters were washed extensively in 0.1% phosphoric acid.

Sequence of FLT3 (P36888 27-993): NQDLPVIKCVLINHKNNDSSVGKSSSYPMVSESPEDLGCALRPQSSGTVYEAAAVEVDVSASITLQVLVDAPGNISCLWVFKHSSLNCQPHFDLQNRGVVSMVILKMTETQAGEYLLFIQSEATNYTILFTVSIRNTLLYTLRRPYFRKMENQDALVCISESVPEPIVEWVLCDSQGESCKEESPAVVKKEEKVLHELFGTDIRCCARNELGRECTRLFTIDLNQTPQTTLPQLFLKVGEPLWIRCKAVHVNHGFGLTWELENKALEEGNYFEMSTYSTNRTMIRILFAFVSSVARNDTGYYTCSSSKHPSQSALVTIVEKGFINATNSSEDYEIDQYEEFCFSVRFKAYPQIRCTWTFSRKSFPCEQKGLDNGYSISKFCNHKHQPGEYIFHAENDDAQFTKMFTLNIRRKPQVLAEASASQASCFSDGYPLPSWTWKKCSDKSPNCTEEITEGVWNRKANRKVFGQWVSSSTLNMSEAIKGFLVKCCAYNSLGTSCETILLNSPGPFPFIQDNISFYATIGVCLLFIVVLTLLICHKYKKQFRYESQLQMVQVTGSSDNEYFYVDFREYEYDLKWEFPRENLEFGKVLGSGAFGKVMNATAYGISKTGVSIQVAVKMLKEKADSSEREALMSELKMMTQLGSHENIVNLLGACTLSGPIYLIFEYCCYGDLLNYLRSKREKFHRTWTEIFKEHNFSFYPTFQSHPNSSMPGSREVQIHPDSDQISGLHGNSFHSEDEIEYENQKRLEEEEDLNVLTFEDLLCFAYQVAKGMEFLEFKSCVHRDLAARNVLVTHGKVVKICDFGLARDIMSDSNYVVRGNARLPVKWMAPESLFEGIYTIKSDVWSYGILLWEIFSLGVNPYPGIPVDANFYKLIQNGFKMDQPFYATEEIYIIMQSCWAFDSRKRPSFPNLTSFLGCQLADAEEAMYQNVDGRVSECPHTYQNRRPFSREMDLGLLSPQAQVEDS
Sequence of ROCK2 (O75116 whole entry): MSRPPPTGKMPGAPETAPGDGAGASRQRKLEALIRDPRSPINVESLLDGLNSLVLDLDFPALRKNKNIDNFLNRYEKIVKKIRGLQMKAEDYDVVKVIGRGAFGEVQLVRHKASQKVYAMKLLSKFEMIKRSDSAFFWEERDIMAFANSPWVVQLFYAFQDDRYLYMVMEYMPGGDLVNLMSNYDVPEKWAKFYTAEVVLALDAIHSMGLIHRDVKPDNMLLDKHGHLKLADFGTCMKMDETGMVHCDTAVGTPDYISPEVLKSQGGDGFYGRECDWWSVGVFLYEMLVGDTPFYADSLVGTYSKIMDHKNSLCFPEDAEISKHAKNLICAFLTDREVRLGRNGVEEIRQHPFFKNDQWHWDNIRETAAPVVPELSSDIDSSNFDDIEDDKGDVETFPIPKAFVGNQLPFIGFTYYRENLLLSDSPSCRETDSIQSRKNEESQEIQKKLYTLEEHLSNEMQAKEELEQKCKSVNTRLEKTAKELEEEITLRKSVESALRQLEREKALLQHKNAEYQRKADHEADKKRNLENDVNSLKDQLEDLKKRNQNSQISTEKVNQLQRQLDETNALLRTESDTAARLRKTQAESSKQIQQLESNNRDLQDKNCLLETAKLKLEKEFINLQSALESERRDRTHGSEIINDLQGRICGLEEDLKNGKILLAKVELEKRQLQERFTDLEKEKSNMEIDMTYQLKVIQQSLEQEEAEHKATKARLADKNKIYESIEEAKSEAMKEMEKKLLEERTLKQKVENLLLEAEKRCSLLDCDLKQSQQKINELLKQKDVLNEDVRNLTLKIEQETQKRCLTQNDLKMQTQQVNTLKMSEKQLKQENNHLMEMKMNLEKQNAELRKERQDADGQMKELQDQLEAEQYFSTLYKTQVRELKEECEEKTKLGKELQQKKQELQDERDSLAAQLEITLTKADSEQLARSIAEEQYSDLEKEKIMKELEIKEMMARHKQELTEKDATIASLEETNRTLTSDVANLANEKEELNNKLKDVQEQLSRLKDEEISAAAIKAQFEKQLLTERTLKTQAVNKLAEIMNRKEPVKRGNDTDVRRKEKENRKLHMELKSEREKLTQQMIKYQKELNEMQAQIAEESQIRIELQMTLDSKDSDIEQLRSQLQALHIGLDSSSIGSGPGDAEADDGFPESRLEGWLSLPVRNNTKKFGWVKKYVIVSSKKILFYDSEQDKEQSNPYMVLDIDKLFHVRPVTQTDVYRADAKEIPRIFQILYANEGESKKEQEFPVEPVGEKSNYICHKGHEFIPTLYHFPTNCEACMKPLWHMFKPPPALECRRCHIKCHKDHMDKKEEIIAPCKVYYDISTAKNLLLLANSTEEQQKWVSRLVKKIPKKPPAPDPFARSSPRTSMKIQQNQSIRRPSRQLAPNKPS
Sequence of WEE1 (P30291 whole entry): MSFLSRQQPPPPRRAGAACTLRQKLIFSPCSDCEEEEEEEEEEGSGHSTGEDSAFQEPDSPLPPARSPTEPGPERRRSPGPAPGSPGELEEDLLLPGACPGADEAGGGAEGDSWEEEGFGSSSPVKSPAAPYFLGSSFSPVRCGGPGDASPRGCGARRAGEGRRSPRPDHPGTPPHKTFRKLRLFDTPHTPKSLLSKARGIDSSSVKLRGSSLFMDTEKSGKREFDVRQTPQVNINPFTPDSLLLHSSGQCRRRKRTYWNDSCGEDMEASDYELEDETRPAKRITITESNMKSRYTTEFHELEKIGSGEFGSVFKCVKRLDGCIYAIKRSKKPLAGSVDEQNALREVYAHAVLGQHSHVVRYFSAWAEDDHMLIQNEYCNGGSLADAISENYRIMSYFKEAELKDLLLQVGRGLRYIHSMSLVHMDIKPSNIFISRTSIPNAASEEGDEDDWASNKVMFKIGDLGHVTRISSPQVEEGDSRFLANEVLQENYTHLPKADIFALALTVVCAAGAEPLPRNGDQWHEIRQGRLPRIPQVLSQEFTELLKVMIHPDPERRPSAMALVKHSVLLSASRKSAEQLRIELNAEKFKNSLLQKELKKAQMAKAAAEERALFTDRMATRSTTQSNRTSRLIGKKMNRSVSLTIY
Sequence of TBK1 (Q9UHD2 whole entry): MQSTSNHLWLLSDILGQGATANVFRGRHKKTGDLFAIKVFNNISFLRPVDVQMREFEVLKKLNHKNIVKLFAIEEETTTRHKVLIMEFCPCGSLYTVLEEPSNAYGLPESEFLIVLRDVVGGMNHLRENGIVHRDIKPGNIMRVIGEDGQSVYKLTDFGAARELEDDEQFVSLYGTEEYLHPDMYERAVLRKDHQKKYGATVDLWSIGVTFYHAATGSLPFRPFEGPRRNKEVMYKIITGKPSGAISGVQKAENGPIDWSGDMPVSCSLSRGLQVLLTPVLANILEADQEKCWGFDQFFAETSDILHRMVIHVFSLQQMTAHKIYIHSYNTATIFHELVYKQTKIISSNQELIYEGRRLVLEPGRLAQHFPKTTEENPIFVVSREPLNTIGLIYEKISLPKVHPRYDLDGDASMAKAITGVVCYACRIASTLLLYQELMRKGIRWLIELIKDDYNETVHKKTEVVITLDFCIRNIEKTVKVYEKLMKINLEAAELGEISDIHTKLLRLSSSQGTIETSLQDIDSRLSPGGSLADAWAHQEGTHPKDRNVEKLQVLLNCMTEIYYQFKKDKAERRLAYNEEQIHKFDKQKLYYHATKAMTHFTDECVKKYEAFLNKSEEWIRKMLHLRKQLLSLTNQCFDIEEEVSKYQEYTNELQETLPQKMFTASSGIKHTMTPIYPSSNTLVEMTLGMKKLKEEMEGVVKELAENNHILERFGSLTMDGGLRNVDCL
Sequence of LIMK1 (P53667 285-638): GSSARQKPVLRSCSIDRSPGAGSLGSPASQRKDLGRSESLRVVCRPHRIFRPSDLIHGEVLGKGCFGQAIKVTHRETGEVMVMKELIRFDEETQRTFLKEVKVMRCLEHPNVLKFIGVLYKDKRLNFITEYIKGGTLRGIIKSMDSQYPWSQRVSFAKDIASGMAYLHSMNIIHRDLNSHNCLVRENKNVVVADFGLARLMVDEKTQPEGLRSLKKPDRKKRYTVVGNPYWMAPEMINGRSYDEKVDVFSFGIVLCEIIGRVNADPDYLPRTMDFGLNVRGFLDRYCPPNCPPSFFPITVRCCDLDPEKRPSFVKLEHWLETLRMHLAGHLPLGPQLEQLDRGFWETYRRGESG
Sequence of GSK3b (P49841 whole entry): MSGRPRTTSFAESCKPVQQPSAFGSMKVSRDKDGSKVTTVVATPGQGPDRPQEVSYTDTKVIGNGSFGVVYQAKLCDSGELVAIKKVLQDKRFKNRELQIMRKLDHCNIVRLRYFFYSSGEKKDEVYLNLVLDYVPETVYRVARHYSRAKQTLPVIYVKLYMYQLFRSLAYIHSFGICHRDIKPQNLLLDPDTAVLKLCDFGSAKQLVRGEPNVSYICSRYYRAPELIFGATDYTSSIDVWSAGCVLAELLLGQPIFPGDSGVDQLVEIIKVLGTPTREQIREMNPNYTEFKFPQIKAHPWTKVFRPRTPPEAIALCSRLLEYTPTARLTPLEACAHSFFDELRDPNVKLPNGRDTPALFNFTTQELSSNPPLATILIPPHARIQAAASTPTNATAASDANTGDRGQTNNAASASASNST
Sequence of p70S6K/RPS6KB1 (P23443 whole entry): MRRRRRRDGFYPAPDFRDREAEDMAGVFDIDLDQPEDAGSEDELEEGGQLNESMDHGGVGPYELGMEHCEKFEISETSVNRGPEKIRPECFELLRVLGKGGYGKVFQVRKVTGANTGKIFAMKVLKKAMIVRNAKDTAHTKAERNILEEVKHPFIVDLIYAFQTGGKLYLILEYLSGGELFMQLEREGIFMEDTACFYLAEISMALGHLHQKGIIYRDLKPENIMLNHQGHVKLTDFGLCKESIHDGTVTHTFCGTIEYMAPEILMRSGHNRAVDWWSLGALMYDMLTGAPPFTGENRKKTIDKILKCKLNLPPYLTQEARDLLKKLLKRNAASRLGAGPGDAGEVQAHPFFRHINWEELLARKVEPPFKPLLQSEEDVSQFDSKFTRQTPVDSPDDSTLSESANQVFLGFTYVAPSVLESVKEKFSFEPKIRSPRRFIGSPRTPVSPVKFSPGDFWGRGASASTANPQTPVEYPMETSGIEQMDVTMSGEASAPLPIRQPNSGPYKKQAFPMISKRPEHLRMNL

SMILES: COC(=O)c1ccc2[nH]c(C3CCN(c4ncnc5[nH]cc(Cl)c45)CC3)nc2c1 [Compound R10015, Methyl 2-(1-(5-chloro-7H-pyrrolo[2,3-d]pyrimidin-4-yl)piperidin-4-yl)-1H-benzo[d]imidazole-5-carboxylate]
- Infectivity (percentage of GFP+ cells) (HIV-1(NL4-3) [1]; 100 μM, pretreated 1 h, HIV-1(NL4-3) 3 h, washed, 48 h, viable cells only, paired DMSO controls 1.76-3.37%): 0.43%
- X4 HIV infection in screening (HIV-1(NL4-3) [1]; at nontoxic dosages, […], Fig. 1C and 2): blocked
- IC50 (HIV-1(NL4-3) [2]): 14.9 µM
- viral entry, HIV-1(Vpr-β-lactamase) (HIV-1(Vpr-β-lactamase)): did not significantly inhibit
- inhibition of EBOV (EBOV (Zaire)): dose-dependent inhibition
- IC50 [3]: ~5 µM
- cytotoxicity (Rev-CEM-GFP-Luc cells): no detectable cytotoxicity
- drug toxicity (Vero cells): No drug toxicity
- activity at 1 µM (BTK): 90.2%
- activity at 1 µM (AKT2): 73.1%
- activity at 1 µM (BRAF): 91.9%
- activity at 1 µM (FLT3): 32.2%
- inhibition at 1 µM (FLT3; read-out: inhibition of FLT3): ~68%
- activity at 1 µM (JNK3): 85.7%
- activity at 1 µM (NEK1): 67.2%
- activity at 1 µM (PKCa): 47.5%
- activity at 1 µM (SGK1): 61%
- activity at 1 µM (TBK1): 82%
- activity at 1 µM (WEE1): 97.2%
- activity at 1 µM (GSK3b): 67.8%
- activity at 1 µM (ROCK2): 29.5%
- inhibition at 1 µM (ROCK2; read-out: inhibition of ROCK2): ~70%
- activity at 1 µM (Aurora A): 60.3%
- SDF-1-mediated actin polymerization (resting CD4 T cells): markedly depressed
- inhibition at 1 µM (p70S6K/RPS6KB1): ≥ 90%
- phosphorylation of PAK2 (phosphorylation of PAK2): not affected
- P-cofilin, lower gate (cells staining low) (p-cofilin): 80%
- IC50 (LIMK1): 0.038 ± 0.005 µM

— article PMC5469273, “Discovery of Novel Small-Molecule Inhibitors of LIM Domain Kinase for Inhibiting HIV-1” (Journal of Virology, 2017)
